Results published in patent publication US20060216238A1, “Compositions and methods for targeting or imaging a tissue in a vertebrate subject” (priority 2005, published 2006).

Columns and labels:
[1] = test system: cowpea plants; experiment: Recovery of virus particles from mouse tissues, infectivity to cowpea; parameters: species or system Vigna unguiculata
Protocol: Recovery of virus particles from mouse tissues. Four mice were orally inoculated with 150 μg/mouse of CPMV and 24 hours later, the mice were euthanized and the liver, spleen, and kidney tissues were extracted and pooled. Following homogenization of pooled tissue samples in PBS, the homogenates were centrifuged at 10,000 g for 10 minutes at 4° C., and the cleared tissue supernatants were removed to flat-bottom 50-ml centrifuge tubes, each containing a magnetic flea. Polyethylene glycol 8000 was added to each supernatant to a final concentration of 8% and the mixture was stirred for 30 minutes at 4° C. to precipitate any virus present. The resulting cloudy mixture was centrifuged at 6,000 rpm in a Sorvall RC5C centrifuge for 15 minutes and the pellet was resuspended in 50-500 μl of 0.1 M phosphate buffer (pH 7.0), depending on pellet size. For each tissue homogenate a 7-day-old cowpea plant was dusted with carborundum and the resuspended pellet from each tissue was rubbed onto a single primary leaf. Five to seven days later, the primary and secondary leaves were harvested and a circle of tissue weighing 70 mg was excised from each leaf. RNA was extracted using a Qiagen RNeasy Plant Mini Kit (Qiagen Research, Maryland, USA) and RT-PCR was conducted as described above. PCR products were electrophoresed on a 2% Seakem LE agarose gel. The PCR products were purified from the gel using a PCR purification kit (Qiagen) and sequenced (Retrogen) to confirm that they were CPMV specific. Southern hybridization of the products with a CPMV-specific probe was also performed using ^32P end-labeled oligonucleotides (Amersham Biosciences). PCR products were transfered to Hybond-N+ membrane (Amersham Biosciences) using standard techniques. Hybridization conditions were 3 hours at 55° C. and wash conditions were in 6×SSC/0.5% SDS and were performed twice for five minutes at room temperature and twice for 5 minutes at 50° C.

[2] = test system: HUVECS stimulated with vegf; experiment: Endothelial cell proliferation assay using CFDA; assay type: cell-based, human; conditions: 30 ug/ml; listed as wt CPMV
Protocol: Measure in vitro angiogenesis by endothelial cell proliferation assay. HUVECs were plated in 96 well plates at 10^4 cells/well in 200 ul EGM2 complete medium. Cells were incubated for 24 h at 37° C. in 5% CO2. cells were then washed once in PBS and incubated in serum free, glucose free medium for 24 h to suppress cell growth. Further, the cells were exposed to various treatments like 10% FBS or VEGF165 in the presence or absence of the targeting CPMV chimeras. Wild type CPMV was used as a control. After 48 h incubation, 1 μl of CFDA was added to the wells and the plated were incubated for additional 24 h. The cells were then placed on ice, washed in PBS 3× and finally fixed in cold 10% TCA for 10 minutes. After washing, the cells were lysed and the CFDA incorporation was read at 488 nm.

[3] = test system: cowpea plants; experiment: Infectivity of SGF- or SIF-treated CPMV on cowpea plants; parameters: species or system Vigna unguiculata; conditions: SGF 60 minutes or SIF 120 minutes, day 14 post-inoculation
Protocol: Stability of CPMV particles in simulated gastric conditions. Simulated gastric fluid (SGF) and simulated intestinal fluid (SIF) were prepared according to Takagi et al. Takagi et al., Biol. Pharm. Bull 26:969-973, 2003. Briefly, pepsin (3.8 mg; Sigma) was dissolved into 5 ml of gastric control fluid (2 mg/ml NaCl, pH 2.0). SIF was prepared by dissolving pancreatin, (10 mg/ml; Sigma) in intestinal control fluid (0.05 M […], pH 6.8). Both solutions were used within the same day. SGF (400 μl) was first incubated at 37° C. for 2 minutes before addition of CPMV (200 μg), giving a ratio of 10 U of pepsin activity/μg of CPMV. The tube contents were mixed by mild vortexing and the tube was immediately placed in a 37° C. water bath for time points ranging from 0-60 minutes, followed by neutralization with 70 μl of 200 mM sodium bicarbonate solution. Similarly, SIF was incubated at 37° C. for 2 minutes before addition of CPMV (200 μg) and the tube contents were placed in a 37° C. water bath for time points up to 120 minutes. Aliquots of virus exposed to SGF or SIF were mixed with 5 μl of NuPAGE 4× LDS-sample buffer, run on 4-12% SDS-PAGE gels, and stained with Simply Blue Safe Stain (Invitrogen). […]

[4] = test system: LCMV; conditions: mouse, in vivo
[5] = target: Flt-1 receptor (VEGFR1) (Homo sapiens, UniProt P17948); experiment: Binding and competition assays using ELISA
Chain of Flt-1 receptor (VEGFR1) (P17948 27-1338): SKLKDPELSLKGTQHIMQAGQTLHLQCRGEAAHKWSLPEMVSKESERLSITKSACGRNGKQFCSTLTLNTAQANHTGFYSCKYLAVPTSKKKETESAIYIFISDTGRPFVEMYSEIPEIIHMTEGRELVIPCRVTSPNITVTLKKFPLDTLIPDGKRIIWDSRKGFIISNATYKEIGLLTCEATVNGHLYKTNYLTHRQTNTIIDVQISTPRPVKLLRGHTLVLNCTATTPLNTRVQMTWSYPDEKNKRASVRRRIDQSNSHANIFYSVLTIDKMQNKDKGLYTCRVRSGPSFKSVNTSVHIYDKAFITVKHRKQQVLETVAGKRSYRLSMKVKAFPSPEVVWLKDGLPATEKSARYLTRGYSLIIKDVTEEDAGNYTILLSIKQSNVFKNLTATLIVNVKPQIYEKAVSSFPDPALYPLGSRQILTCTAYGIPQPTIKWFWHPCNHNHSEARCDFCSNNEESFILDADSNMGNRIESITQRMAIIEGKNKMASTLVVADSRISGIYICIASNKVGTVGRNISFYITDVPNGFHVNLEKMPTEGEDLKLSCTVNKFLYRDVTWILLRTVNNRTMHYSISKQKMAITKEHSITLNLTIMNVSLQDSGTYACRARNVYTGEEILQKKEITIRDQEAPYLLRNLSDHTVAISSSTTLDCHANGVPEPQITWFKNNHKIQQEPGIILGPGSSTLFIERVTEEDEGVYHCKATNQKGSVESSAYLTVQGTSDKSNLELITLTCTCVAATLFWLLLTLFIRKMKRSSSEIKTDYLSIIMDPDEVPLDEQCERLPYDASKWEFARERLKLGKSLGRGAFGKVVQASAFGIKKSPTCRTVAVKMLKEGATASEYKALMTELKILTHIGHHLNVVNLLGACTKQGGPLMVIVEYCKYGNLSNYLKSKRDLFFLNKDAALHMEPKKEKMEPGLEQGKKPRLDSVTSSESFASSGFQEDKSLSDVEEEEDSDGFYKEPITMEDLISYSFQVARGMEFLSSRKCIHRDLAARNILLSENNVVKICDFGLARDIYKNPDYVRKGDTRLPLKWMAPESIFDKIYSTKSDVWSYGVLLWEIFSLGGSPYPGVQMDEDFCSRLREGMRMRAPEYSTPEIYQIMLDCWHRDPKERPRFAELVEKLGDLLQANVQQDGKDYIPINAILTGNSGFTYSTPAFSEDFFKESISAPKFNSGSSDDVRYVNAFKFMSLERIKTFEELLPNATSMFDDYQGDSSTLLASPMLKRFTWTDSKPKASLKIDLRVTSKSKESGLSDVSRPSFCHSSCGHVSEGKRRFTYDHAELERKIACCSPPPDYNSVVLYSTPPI

cowpea mosaic virus [CPMV]
symptoms on cowpea leaves from virus recovered from mouse liver and spleen ([1]; PEG-precipitated tissue homogenates): No symptoms were observed | inoculated amount required for a PCR signal ([1]; control titration on cowpea): 1 ng | inoculated amount required to observe symptoms ([1]; control titration on cowpea): 10 ng | effect on cell growth/proliferation [2]: did not affect cell growth/proliferation | infectivity on cowpea plants after SGF or SIF [3]: infectivity similar to untreated CPMV | survival of lethal i.c. LCMV challenge [4]: one of six | binding to Flt-1 receptor in ELISA [5]: did not show any detectable binding
